Our source for the mortality values is patent EP4467535A1, “LACTAM PESTICIDAL COMPOUNDS” (priority 2023, dated 2024).

Format in all cases: in vivo
Experiment [1] relates to Yellow fever mosquito (Aedes aegypti). Briefly: whole plant or invertebrate. As to conditions: 48 h, larval mortality visually assessed after 2 days at 28 ± 1°C, read-out: mortality in comparison with untreated controls. How it is done: Example B1: Action on Yellow fever mosquito (Aedes aegypti)
For evaluating control of yellow fever mosquito (Aedes aegypti) the test unit consisted of 96-well-microtiter plates containing 200µL of tap water per well and 5-15 freshly hatched A. aegypti larvae.
The active compounds or mixtures were formulated using a solution containing 75% (v/v) water and 25% (v/v) DMSO. Different concentrations of formulated compounds or mixtures were sprayed onto the insect diet at 2.5µL, using a custom-built micro atomizer, at two replications.
For experimental mixtures in these tests identical volumes of both mixing partners at the desired concentrations respectively, were mixed together.
After application, microtiter plates were incubated at 28 ± 1°C, 80 ± 5 % relative humidity for 2 days. Larval mortality was then visually assessed.

The test system of experiment [2] is Orchid thrips (Dichromothrips corbetti). In words: Action on Orchid thrips (Dichromothrips corbetti), floral-immersion technique. As to conditions: adult thrips on dipped orchid petals, 72 hours after treatment, read-out: mortality in comparison with untreated controls. Here is the method: Example B2: Action on Orchid thrips (Dichromothrips corbetti)
Dichromothrips corbetti adults used for bioassay were obtained from a colony maintained continuously under laboratory conditions. For testing purposes, the test compound is diluted in a 1:1 mixture of acetone:water (vol:vol), plus Kinetic® HV at a rate of 0.01% v/v.
Thrips potency of each compound was evaluated by using a floral-immersion technique. All petals of individual, intact orchid flowers were dipped into treatment solution and allowed to dryin Petri dishes. Treated petals were placed into individual re-sealable plastic along with about 20 adult thrips. All test arenas were held under continuous light and a temperature of about 28°C for duration of the assay. After 3 days, the numbers of live thrips were counted on each petal. The percent mortality was recorded 72 hours after treatment.

Experiment [3] has as its system Boll weevil (Anthonomus grandis). In words: Action on Boll weevil (Anthonomus grandis), 96-well microtiter plate insect diet test. The conditions noted are these: 120 h, egg and larval mortality visually assessed after 5 days, read-out: mortality in comparison with untreated controls. Here is the method: Example B3: Action on Boll weevil (Anthonomus grandis )
For evaluating control of boll weevil (Anthonomus grandis) the test unit consisted of 96-well-microtiter plates containing an insect diet and 5-10 A. grandis eggs.
The compounds were formulated using a solution containing 75% (v/v) water and 25% (v/v) DMSO. Different concentrations of formulated compounds were sprayed onto the insect diet at 5 µL, using a custom-built micro atomizer, at two replications.
After application, microtiter plates were incubated at about 25 + 1°C and about 75 + 5 % relative humidity for 5 days. Egg and larval mortality were then visually assessed.

The test system of experiment [4] is Silverleaf whitefly (Bemisia argentifolii) (adults). In words: Action on Silverleaf whitefly (Bemisia argentifolii) adults, sprayed cotton plants. As to conditions: 72 h, read-out: mortality in comparison with untreated controls. How it is done:
Example B4: Action on Silverleaf whitefly (Bemisia argentifolii) (adults)
The active compounds were formulated by a Tecan liquid handler in 100% cyclohexanone as a 10,000 ppm solution supplied in tubes. The 10,000 ppm solution was serially diluted in 100% cyclohexanone to make interim solutions. These served as stock solutions for which final dilutions were made by the Tecan in 50% acetone:50% water (v/v) into 5 or 10ml glass vials. A nonionic surfactant (Kinetic®) was included in the solution at a volume of 0.01% (v/v). The vials were then inserted into an automated electrostatic sprayer equipped with an atomizing nozzle for application to plants/insects.
Cotton plants at the cotyledon stage (one plant per pot) were sprayed by an automated electrostatic plant sprayer equipped with an atomizing spray nozzle. The plants were dried in the sprayer fume hood and then removed from the sprayer. Each pot was placed into a plastic cup and about 10 to 12 whitefly adults (approximately 3-5 days old) were introduced. The insects were collected using an aspirator and a nontoxic Tygon® tubing connected to a barrier pipette tip. The tip, containing the collected insects, was then gently inserted into the soil containing the treated plant, allowing insects to crawl out of the tip to reach the foliage for feeding. […] Mortality was assessed 3 days after treatment, compared to untreated control plants.

The test system of experiment [5] is Tobacco budworm (Heliothis virescens). Briefly: Action on Tobacco budworm (Heliothis virescens), 96-well microtiter plate insect diet test. As to conditions: 120 h, egg and larval mortality visually assessed after 5 days, read-out: mortality in comparison with untreated controls. How it is done: Example B5: Action on Tobacco budworm (Heliothis virescens)
For evaluating control of tobacco budworm (Heliothis virescens) the test unit consisted of 96-well-microtiter plates containing an insect diet and 15-25 H. virescens eggs.
The compounds were formulated using a solution containing 75% v/v water and 25% v/v DMSO. Different concentrations of formulated compounds were sprayed onto the insect diet at 10 µl, using a custom-built micro atomizer, at two replications.
After application, microtiter plates were incubated at about 28 + 1°C and about 80 + 5 % relative humidity for 5 days. Egg and larval mortality were then visually assessed.

Experiment [6] concerns Diamond back moth (Plutella xylostella). In words: Action on Diamond back moth (Plutella xylostella), cabbage leaf dip test. The conditions noted are these: foliar, third instar larvae on dipped cabbage leaves, 72 hours after treatment, read-out: mortality in comparison with untreated controls. How it is done:
Example B6: Action on Diamond back moth (Plutella xylostella)
The active compound is dissolved at the desired concentration in a mixture of 1:1 (v/v) distilled water: acetone. Surfactant (Kinetic® HV) is added at a rate of 0.01% (v/v). The test solution is prepared at the day of use.
Leaves of cabbage were dipped in test solution and air-dried. Treated leaves were placed in petri dishes lined with moist filter paper and inoculated with ten third instar larvae. Mortality was recorded 72 hours after treatment. Feeding damages were also recorded using a scale of 0-100%.

The test system of experiment [7] is Southern armyworm (Spodoptera eridania), second instar larvae. In words: Action on Southern armyworm (Spodoptera eridania), sprayed lima bean plants. As to conditions: 96 h, 4 days after treatment, read-out: mortality in comparison with untreated controls. Here is the method: Example B7: Action on Southern armyworm (Spodoptera eridania), second instar larvae
The active compounds were formulated by a Tecan liquid handler in 100% cyclohexanone as a 10,000 ppm solution supplied in tubes. The 10,000 ppm solution was serially diluted in 100% cyclohexanone to make interim solutions. These served as stock solutions for which final dilutions were made by the Tecan in 50% acetone:50% water (v/v) into 10 or 20 mL glass vials. A nonionic surfactant (Kinetic®) was included in the solution at a volume of 0.01% (v/v). The vials were then inserted into an automated electrostatic sprayer equipped with an atomizing nozzle for application to plants/insects.
Lima bean plants (variety Sieva) were grown 2 plants to a pot and selected for treatment at the 1st true leaf stage. Test solutions were sprayed onto the foliage by an automated electrostatic plant sprayer equipped with an atomizing spray nozzle. The plants were dried in the sprayer fume hood and then removed from the sprayer. Each pot was placed into perforated plastic bags with a zip closure. About 10 to 11 armyworm larvae were placed into the bag and the bags zipped closed. Test plants were maintained in a growth room at about 25°C and about 20-40% relative humidity for 4 days, avoiding direct exposure to fluorescent light (24 hour photoperiod) to prevent trapping of heat inside the bags. Mortality and reduced feeding were assessed 4 days after treatment, compared to untreated control plants.

On to `Cc1ccc(C(C)C)c(N2C(=O)CS/C2=N\N=C\c2ccc(-c3nn(C)c(N4Cc5cc(OC(F)(F)F)ccc5C4=O)c3C)cc2)c1` [C-2, (2Z)-2-[(E)-[4-[1,4-dimethyl-5-[1-oxo-5-(trifluoromethoxy)isoindolin-2-yl]pyrazol-3-yl]phenyl]methylenehydrazono]-3-(2-isopropyl-5-methyl-phenyl)thiazolidin-4-one], for which the mortality at 800 ppm in experiment [1] is not below 50%; in experiment [3], not below 75%; in experiment [5], not below 75%. The mortality at 300 ppm in experiment [2], in experiment [4], in experiment [6] and in experiment [7] was not below 75% in each case.
